Test results as given in patent publication US20110245249A1, “Heterocyclically Substituted Anilinopyrimidines” (Bayer CropScience AG, priority 2008, published 2011).

Experiment: logP by HPLC on reversed-phase columns (EEC Directive 79/831 Annex V.A8)
Assay type: physicochemical
Details: for log p [c]: pH 7.8; for log p [a]: pH 2.3
Experimental: The logP values were measured in accordance with EEC Directive 79/831 Annex V.A8 by HPLC (High Performance Liquid Chromatography) on reversed-phase columns (C 18) using the methods below:
[a] The determination was carried out in the acidic range at pH 2.3 using the mobile phases 0.1% aqueous phosphoric acid and acetronitrile linear gradient from 10% acetonitrile to 95% acetronitrile. [b] The LC-MS determination in the acid range was carried out at pH 2.7 using the mobile phases 0.1% aqueous formic acid and acetonitrile (contains 0.1% formic acid) linear gradient from 10% acetonitrile to 95% acetonitrile. [c] The LC-MS determination in the neutral range was carried out at pH 7.8 using the mobile phases 0.001 molar aqueous ammonium bicarbonate solution and acetonitrile linear gradient from 10% acetonitrile to 95% acetonitrile.

SMILES | log p [b] (pH 2.7) | log p [c] | other results
Clc1cnc(Nc2cccc(C3OC4CCCCC4O3)c2)nc1NC1CC1 (stereo not shown) [Example 44] | 2.65 | 3.99 | 
FC(F)(F)CNc1nc(Nc2cccc(C3OCCO3)c2)ncc1Cl [Example 45] | 2.35 | 2.73 | 
Clc1cnc(Nc2cccc(C3OCCS3)c2)nc1NC1CC1 (stereo not shown) [Example 46, 5-Chloro-N^4-cyclopropyl-N^2-[3-(1,3-oxathiolan-2-yl)phenyl]pyrimidine-2,4-diamine] |  |  | chromatographic logP (pH 2.7, log p [b]): 2.05; chromatographic logP (pH 2.7, logP (pH 2.7)): 2.05; chromatographic logP (pH 7.8, log p [c]): 3.26
Clc1cnc(Nc2cccc(C3SCCS3)c2)nc1NC1CC1 [Example 47] | 2.42 | 3.68 | 
CC1(c2cccc(Nc3ncc(C(F)(F)F)c(NC4CC4)n3)c2)OCCCO1 [Example 48] | 3.29 | 3.64 | 
Ic1cnc(Nc2cccc(C3OCCO3)c2)nc1NC1CC1 [Example 49] | 1.75 | 3.02 | 
Clc1ccc(Nc2ncc(Cl)c(NC3CC3)n2)cc1C1OCCO1 [Example 50] | 2.31 | 3.28 | 
Fc1cnc(Nc2cccc(C3OCCCO3)c2)nc1NC1CC1 [Example 51] | 1.28[b] | 2.4 | log p [a]: 1.23
FC(F)CNc1nc(Nc2cccc(C3OCCCO3)c2)ncc1Cl [Example 52] | 1.97[b] | 2.68 | log p [a]: 1.6
FC(F)(F)CNc1nc(Nc2cccc(C3OCCCO3)c2)ncc1Cl [Example 53] | 2.48[b] | 2.86 | log p [a]: 2.08
C#CCNc1nc(Nc2cccc(C3OCCCO3)c2)ncc1Cl [Example 54] | 1.67[b] | 2.48 | log p [a]: 1.38
Cc1cnc(Nc2cccc(C3OCCCO3)c2)nc1NC1CC1 [Example 55] | 1.28[b] | 2.37 | log p [a]: 1.32
COCC(C)Nc1nc(Nc2cccc(C3OCCCO3)c2)ncc1Cl (stereo not shown) [Example 56] | 1.69[b] | 2.92 | log p [a]: 1.46
Ic1cnc(Nc2cccc(C3OCCCO3)c2)nc1NC1CC1 [Example 57] | 2.23[b] | 3.18 | log p [a]: 1.6
Cc1cnc(Nc2cccc(C3OCCO3)c2)nc1NC1CC1 [Example 58] | 1.21[b] | 2.25 | log p [a]: 1.21
Fc1cnc(Nc2cccc(C3OCCO3)c2)nc1NC1CC1 [Example 59] | 1.60[b] | 2.28 | log p [a]: 1.14
FC(F)CNc1nc(Nc2cccc(C3OCCO3)c2)ncc1Cl [Example 60] | 1.88[b] | 2.55 | log p [a]: 1.49
COCC(C)Nc1nc(Nc2cccc(C3OCCO3)c2)ncc1Cl (stereo not shown) [Example 61] | 1.62[b] |  | 
Clc1ccc(Nc2ncc(Cl)c(NC3CC3)n2)cc1C1OCCCO1 [Example 62] | 2.44 | 3.47 | 
COC(OC)c1cccc(Nc2ncc(Cl)c(NC3CC3)n2)c1 [Example 63] | 1.87 | 3.07 | 
CCOC(OCC)c1cccc(Nc2ncc(Cl)c(NC3CC3)n2)c1 [Example 64] | 2.58 | 3.86 | 
CC(C)OC(OC(C)C)c1cccc(Nc2ncc(Cl)c(NC3CC3)n2)c1 [Example 65] |  | 4.44[c]; | 
CCCCOC(OCCCC)c1cccc(Nc2ncc(Cl)c(NC3CC3)n2)c1 [Example 66] | 4.64 | 5.83 | logP (pH 2.7) (pH 2.7): 4.64
CC1(c2cccc(Nc3ncc(C(F)(F)F)c(NCC4CC4)n3)c2)OCCCO1 [Example 68] | 3.42[b] |  | 
CC1(c2cccc(Nc3ncc(C(F)(F)F)c(NC4CCC4)n3)c2)OCCCO1 [Example 69] | 3.81 | 4.24 | 

SMILES | log p [b] (pH 2.7) | log p [c] | other results
CC1(C)COC(C)(c2cccc(Nc3ncc(Cl)c(NC4CC4)n3)c2)OC1 [Example 71] | 2.99 | 4.35 | 
CC1COC(C)(c2cccc(Nc3ncc(C(F)(F)F)c(NC4CC4)n3)c2)O1 (stereo not shown) [Example 72] | 3.52 | 3.94 | 
CC1(C)COC(C)(c2cccc(Nc3ncc(C(F)(F)F)c(NC4CC4)n3)c2)OC1 [Example 73] | 4.32 | 4.7 | 
CCC1(c2cccc(Nc3ncc(Cl)c(NC4CC4)n3)c2)OCC(C)O1 (stereo not shown) [Example 74] | 2.67 | 4.1 | 
CC1CC1Nc1nc(Nc2cccc(C3OCCO3)c2)ncc1Cl (stereo not shown) [Example 75] |  | 3.21[c] | 
CC1CC1Nc1nc(Nc2cccc(C3(C)OCCO3)c2)ncc1Cl (stereo not shown) [Example 76] | 2.32 | 3.67 | 
Brc1cnc(Nc2ccc(C3OCCCO3)cc2)nc1NC1CCC1 [Example 77] | 2.2 | 3.61 | 
FC(F)(F)c1cnc(Nc2ccc(C3OCCCO3)cc2)nc1NC1CC1 [Example 78] | 2.72 | 3.21 | 
Brc1cnc(Nc2cccc(C3OCC(C4CC4)CO3)c2)nc1NC1CC1 (stereo not shown) [Example 79] | 2.77 | 4.03 | 
Clc1cnc(Nc2cccc(C3OCC(C4CC4)CO3)c2)nc1NC1CCC1 (stereo not shown) [Example 80] | 2.93 | 4.43 | 
C=C1COC(c2cccc(Nc3ncc(Br)c(NC4CC4)n3)c2)OC1 [Example 81] | 2.1 | 3.27 | 
C=C1COC(c2cccc(Nc3ncc(Br)c(NC4CCC4)n3)c2)OC1 [Example 82] | 2.43 | 3.85 | 
CC1COC(c2cccc(Nc3ncc(C(F)(F)F)c(NC4CC4)n3)c2)O1 (stereo not shown) [Example 83] | 2.94[b] | 3.45 | log p [a]: 2.44
CC1COC(c2cccc(Nc3ncc(Br)c(NC4CC4)n3)c2)O1 (stereo not shown) [Example 84] | 2.03 | 3.25 | 
CC1COC(c2cccc(Nc3ncc(Br)c(NC4CCC4)n3)c2)O1 (stereo not shown) [Example 85] | 2.39 | 3.84 | 
CC1COC(c2cccc(Nc3ncc(Cl)c(NC4CCC4)n3)c2)O1 (stereo not shown) [Example 86] | 2.2 | 3.68 | 
CC1COC(c2cccc(Nc3ncc(C(F)(F)F)c(NC4CCC4)n3)c2)O1 (stereo not shown) [Example 87] | 3.51 | 4.04 | 
CCC1COC(c2cccc(Nc3ncc(C(F)(F)F)c(NC4CC4)n3)c2)O1 (stereo not shown) [Example 88] | 3.48 | 3.9 | 
CCC1COC(c2cccc(Nc3ncc(Br)c(NC4CCC4)n3)c2)O1 (stereo not shown) [Example 89] | 2.88 | 4.35 | 
CCC1COC(c2cccc(Nc3ncc(Cl)c(NC4CCC4)n3)c2)O1 (stereo not shown) [Example 90] | 2.65 | 4.18 | 
C=C1COC(c2cccc(Nc3ncc(Cl)c(NC4CCC4)n3)c2)OC1 [Example 91] |  | 3.73[c] | 
C=C1COC(c2cccc(Nc3ncc(Cl)c(NC4CC4)n3)c2)OC1 [Example 92] | 2.01 | 3.18 | 
Clc1cnc(Nc2cccc(C3OCC(C4CC4)CO3)c2)nc1NC1CC1 (stereo not shown) [Example 93] | 2.6 | 3.91 | 
Clc1cnc(Nc2cccc(C3OCCC(c4ccccc4)O3)c2)nc1NC1CC1 (stereo not shown) [Example 94] | 2.83 | 4.11 | 
